Reference: patent US20190119200A1, “TERTIARY AMIDES AND METHOD OF USE” (AbbVie Inc., priority 2016, published 2019)

Tests used:
LPAR1 = biological target: T1, LPAR1 (Homo sapiens, UniProt Q92633); test: LPAR1 FLIPR Assay; assay type: cell-based; details: U2OS cells stably expressing LPAR1, LPA (EC80), Calcium 6 FLIPR dye; for Emax: read-out: Maximum Inhibition
T1 construct: host or cells: U2OS
Experimental: U2OS cells stably expressing LPAR1 (Life Technologies #K1519A) were plated at 12000 cells/well in growth medium (McCoy's 5A medium(Life Technologies 16600-082)) with 10% dFBS (Life Technologies 26400-036), 0.1 mM non-essential amino acids, 25 mM HEPES, 1 mM sodium pyruvate, 1% penicillin/streptomycin, 50 μg/mL hygromycin, and 100 μg/mL Geneticin® in black-walled, clear-bottom 384-well plates (Corning #3683) and incubated in humidified 5% CO2 at 37° C. overnight. On the day of the assay, medium was removed and 30 μL of 5% Calcium 6 FLIPR dye in assay buffer-HBSS (Life Technologies #14025) containing 20 mM HEPES (Life Technologies #15630-080) was added to the cells. Cells were incubated at 37° C. in the dark for 2 hours. Compounds were 3-fold serial diluted from 10 mM for 11-points using dimethyl sulfoxide. 1 μL of compound in DMSO was diluted in 82.3 μL assay buffer immediately before the assay. Using a FLIPR® TETRA® system, 15 μL of the (4×) compound solutions were first added to the cells, then 15 μL of LPA (EC80) diluted in of assay buffer supplemented with 0.1% BSA was added 3 minutes later to activate the receptor. Changes in fluorescence were measured at wavelengths of 515-575 nm over the course of the experimental run. IC50 values were calculated from curve fits of the ratio data using a four-parameter logistic Hill equation (Assay Explorer 3.3 Client).

[1] = tested on: LPA-induced MCP-1 in NRK-49F cells; test: LPA-induced MCP-1 AlphaLISA assay; assay type: cell-based; details: Rattus norvegicus, final LPA 10 μM, 7 hours; for Emax: read-out: Maximum Inhibition
Experimental: Two days prior to the experiment, NRK-49F cells were plated at 8,000 cells/well in 100 μL of growth medium [DMEM (Life Technologies #11995) with 5% dFBS (Life Technologies #30067-334), 100 units/mL penicillin/streptomycin (Life Technologies #15140122)] in 96-well clear flat bottom polystyrene TC-treated microplate (Corning® #3599) and incubated in humidified 10% CO2 at 37° C. One day prior to the experiment, the cell medium was removed and serum free medium [100 μL/well, DMEM (Life Technologies #11995) with 0.1% fatty acid free BSA (Sigma #A6003)] was added with continued incubation in humidified 10% CO2 at 37° C. overnight. On the day of the assay, test compounds were 1:3 serially diluted in 100% DMSO using a BioTek Precision™ system and then transferred (equivalent volume of DMSO as controls) to a plate in serum free medium [DMEM with 0.1% fatty acid free BSA] using a Biomek® NX workstation to give a 2× compound solution. The cell culture medium was removed, and cells were pre-treated with 50 μL/well of 2× compound in serum free medium [DMEM with 0.1% fatty acid free BSA] at 37° C. for 30 minutes. Following the incubation, 50 μL/well of 20 μM LPA diluted in serum free medium [DMEM with 0.1% fatty acid free BSA] was added to the cells. Serum free medium [DMEM with 0.1% fatty acid free BSA] was used as substitution for low control wells while 20 µM LPA was added to high control wells and test compound wells. 200 µM LPA was added to EC100 wells. Final DMSO concentration was 1% in every well. Final LPA concentration in test compound wells and high control wells was 10 μM. […] After the incubation, cell supernatant was transferred to a new 96 well polypropylene plate (Greiner #651201) where it was sealed and stored at −80° C. On the detection day, 5 μL of thawed cell supernatant was transferred to a new white opaque 384-well microplate (Perkin Elmer #6007299). An AlphaLISA® mouse/rat CCL2/MCP1, Immunoassay Research kit (PerkinElmer #AL509F) was used. A mixture (20 μL/well) of AlphaLISA® Anti-Analyte Accept beads (10 μg/mL final) and Biotinylated Antibody Anti-Analyte (freshly prepared, 1 nM final) was added. The mixture in the wells was mixed and then incubated at room temperature for 1 hour. Then SA-Donor beads (25 μL/well, 40 μg/mL final) were added giving a final volume of 50 μL/well. The contents of the wells were mixed and then incubated at room temperature for 0.5 hour (protect from light). The plate was read using the default Envision™ Alpha protocol (PerkinElmer). IC50 values were calculated from curve fits of the ratio data using a four-parameter logistic Hill equation (Assay Explorer 3.3 Client).

T1 sequence (Q92633 whole entry): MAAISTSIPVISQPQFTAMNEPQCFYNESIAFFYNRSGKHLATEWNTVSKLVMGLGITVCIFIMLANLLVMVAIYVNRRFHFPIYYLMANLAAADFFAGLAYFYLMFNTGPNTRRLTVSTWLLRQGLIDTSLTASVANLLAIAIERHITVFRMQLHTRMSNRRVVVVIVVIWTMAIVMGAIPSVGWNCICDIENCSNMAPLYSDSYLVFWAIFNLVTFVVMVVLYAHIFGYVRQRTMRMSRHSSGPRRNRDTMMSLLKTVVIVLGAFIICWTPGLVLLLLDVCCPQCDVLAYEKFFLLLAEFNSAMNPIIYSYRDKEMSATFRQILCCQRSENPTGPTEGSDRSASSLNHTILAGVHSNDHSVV

| Compound | IC50 (LPAR1) [nM] | Emax (LPAR1) [%] | IC50 [1] [nM] | Emax [1] [%] |
| --- | --- | --- | --- | --- |
| Cc1ncc(Cl)c(C(=O)N(CCCCC(=O)O)CCCc2ccccc2)n1 [Example 167, 5-[(5-chloro-2-methylpyrimidine-4-carbonyl)(3-phenylpropyl)amino]pentanoic Acid] | 635 | 58 | > 10000 | 25 |
| COc1cc(C(=O)N(CCCc2ccc(C)o2)CCCC(C)(C)C(=O)O)cc(OC)c1C [Example 180, 5-{(3,5-dimethoxy-4-methylbenzoyl)[3-(5-methylfuran-2-yl)propyl]amino}-2,2-dimethylpentanoic Acid] | 48 | 100 | 105 | 93 |
| COc1cc(C(=O)N(CCCCC(=O)O)CCCc2ccccc2)cc2oc(C)cc12 [Example 31, 5-[(4-methoxy-2-methyl-1-benzofuran-6-carbonyl)(3-phenylpropyl)amino]pentanoic Acid] | 45 | 87 | 5320 | 68 |
| COc1cc(C(=O)N(CCCc2ccccc2)CCCC(C)(C)C(=O)NS(C)(=O)=O)cc(OC)c1C [Example 162, N-{5-[(methanesulfonyl)amino]-4,4-dimethyl-5-oxopentyl}-3,5-dimethoxy-4-methyl-N-(3-phenylpropyl)benzamide] | 76 | 100 | 7 | 94 |
| COc1cc(C(=O)N(CCCCC(=O)NS(=O)(=O)c2cccnc2)CCCc2ccccc2)cc(OC)c1C [Example 142, 3,5-dimethoxy-4-methyl-N-{5-oxo-5-[(pyridine-3-sulfonyl)amino]pentyl}-N-(3-phenylpropyl)benzamide] | 76 | 88 | 831 | 90 |
| COc1ccc(C2(C(=O)N(CCCCC(=O)O)CCCc3ccccc3)CC(=O)C2)cc1 [Example 152, 5-{[1-(4-methoxyphenyl)-3-oxocyclobutane-1-carbonyl](3-phenylpropyl)amino}pentanoic Acid] | 85 | 88 | 6170 | 64 |
| COc1ccc(C2(C(=O)N(CCCc3ccccc3)CCOCC(=O)O)CC2)cc1 [Example 87, (2-{[1-(4-methoxyphenyl)cyclopropane-1-carbonyl](3-phenylpropyl)amino}ethoxy)acetic Acid] | 81 | 71 | 5440 | 62 |
| COc1cc(C(=O)N(CCCc2ccccc2Cl)CCSCC(=O)O)cc(OC)c1C [Example 112, [(2-{[3-(2-chlorophenyl)propyl](3,5-dimethoxy-4-methylbenzoyl)amino}ethyl)sulfanyl]acetic Acid] | 315 | 77 | 996 | 78 |
| COc1cc(C(=O)N(CCCCC(=O)NS(=O)(=O)c2ccncc2)CCCc2ccccc2)cc(OC)c1C [Example 143, 3,5-dimethoxy-4-methyl-N-{5-oxo-5-[(pyridine-4-sulfonyl)amino]pentyl}-N-(3-phenylpropyl)benzamide] | 81 | 83 | 1350 | 66 |
| COc1cc(C(=O)N(CCCCC(=O)O)CCc2ccccc2)cc(OC)c1C [Example 95, 5-[(3,5-dimethoxy-4-methylbenzoyl)(2-phenylethyl)amino]pentanoic Acid] | > 30000 | 10 | > 10000 | 18 |
| COc1cc(C(=O)N(CCCCC(=O)O)CCCc2ccccc2)ccc1Cl [Example 17, 5-[(4-chloro-3-methoxybenzoyl)(3-phenylpropyl)amino]pentanoic Acid] | 3980 | 61 | > 1300 | 65 |
| COc1cc(C(=O)N(CCCCC(=O)NS(=O)(=O)C(C)C)CCCc2ccccc2)cc(OC)c1C [Example 124, 3,5-dimethoxy-4-methyl-N-{5-oxo-5-[(propane-2-sulfonyl)amino]pentyl}-N-(3-phenylpropyl)benzamide] | 59 | 92 | 1150 | 88 |
| COc1ccc(C2(C(=O)N(CCCCC(=O)O)CCCc3ccccc3)CCC2)cc1 [Example 86, 5-{[1-(4-methoxyphenyl)cyclobutane-1-carbonyl](3-phenylpropyl)amino}pentanoic Acid] | 44 | 88 | 2980 | 74 |
| COc1cc(C(=O)N(CCCCC(=O)O)CCCc2ccc(F)cc2F)cc(OC)c1C [Example 146, 5-{[3-(2,4-difluorophenyl)propyl](3,5-dimethoxy-4-methylbenzoyl)amino}pentanoic Acid] | 46 | 89 | 807 | 79 |
| COc1cc(C(=O)N(CCCCC(=O)O)CCCc2ccccc2)ccc1[N+](=O)[O-] [Example 22, 5-[(3-methoxy-4-nitrobenzoyl)(3-phenylpropyl)amino]pentanoic Acid] | 54 | 89 | > 9350 | 42 |
| COc1ccc(C2(C(=O)N(CCCCC(=O)O)CCCc3ccccc3)CC2)cc1Cl [Example 107, 5-{[1-(3-chloro-4-methoxyphenyl)cyclopropane-1-carbonyl](3-phenylpropyl)amino}pentanoic Acid] | 78 | 85 | 3590 | 71 |
| COc1ccc(C2(C(=O)N(CCCCC(=O)O)CCCc3cccc(Cl)c3)CC2)cc1 [Example 102, 5-{[3-(3-chlorophenyl)propyl][1-(4-methoxyphenyl)cyclopropane-1-carbonyl]amino}pentanoic Acid] | 47 | 85 | 1550 | 80 |
| COc1cc(OC)c([N+](=O)[O-])c(C(=O)N(CCCCC(=O)O)CCCc2ccccc2)c1 [Example 19, 5-[(3,5-dimethoxy-2-nitrobenzoyl)(3-phenylpropyl)amino]pentanoic Acid] | 71 | 98 | 783 | 84 |
| COc1cc(OC)cc(C(=O)N(CCCCC(=O)O)CCCc2c(F)cccc2F)c1 [Example 137, 5-{[3-(2,6-difluorophenyl)propyl](3,5-dimethoxybenzoyl)amino}pentanoic Acid] | 92 | 64 | > 10000 | 28 |
| COc1cc(C(=O)N(CCCc2ccc(C)o2)CCCC(C)C(=O)O)cc(OC)c1C (stereo not drawn) [Example 179, 5-{(3,5-dimethoxy-4-methylbenzoyl)[3-(5-methylfuran-2-yl)propyl]amino}-2-methylpentanoic Acid] | 46 | 97 | 1980 | 74 |
| COc1cc(C(=O)N(CCCCC(=O)O)CCC(C)c2ccccc2)cc(OC)c1C (stereo not drawn) [Example 182, 5-[(3,5-dimethoxy-4-methylbenzoyl)(3-phenylbutyl)amino]pentanoic Acid] | 47 | 91 | 994 | 85 |
